This test is described as follows: Antagonist activity at CCR9 receptor in human MOLT4 cells assessed as inhibition of CCl25-mediated cell migration preincubated for 30 mins followed CCL25 addition incubated for 2 hrs by ChemoTx plate system.
Broadly, the Ki is the equilibrium dissociation constant of an inhibitor or competing ligand from its target. For `CC(C)(C)c1ccc(S(=O)(=O)Nc2ccc(Cl)c3c2C(=O)N(Cc2cccnc2)C3=O)cc1` [US9969687, Compound 64], the Ki was 357 nM.

For `CC(C)(C)c1ccc(S(=O)(=O)Nc2ccc(Cl)c3c2C(=O)N(Cc2ccc[n+]([O-])c2)C3=O)cc1` [US9969687, Compound 65], the Ki is 38 nM.

For `COc1ccncc1N1C(=O)c2c(Cl)ccc(NS(=O)(=O)c3ccc(C(C)(C)C)cc3)c2C1=O` [US9969687, Compound 119], the Ki is 3 nM.

As to `Cc1ncccc1N1C(=O)c2c(Cl)ccc(NS(=O)(=O)c3ccc(C(C)(C)C)cc3)c2C1=O` [US9969687, Compound 175], the Ki stood at 14 nM.

Regarding `Cc1c(N2C(=O)c3c(Cl)ccc(NS(=O)(=O)c4ccc(C(C)(C)C)cc4)c3C2=O)ccc[n+]1[O-]` [US9969687, Compound 176], the Ki turned out to be 24 nM.

Take `COc1ncccc1N1C(=O)c2c(Cl)ccc(NS(=O)(=O)c3ccc(C(C)(C)C)cc3)c2C1=O` [US9969687, Compound 183]: the Ki amounted to 32 nM.

`COc1c(N2C(=O)c3c(Cl)ccc(NS(=O)(=O)c4ccc(C(C)(C)C)cc4)c3C2=O)ccc[n+]1[O-]` [US9969687, Compound 194]: the Ki amounted to 113 nM.

For the compound `CC(C)(C)c1ccc(S(=O)(=O)Nc2ccc(Cl)c3c2C(=O)N(Cc2cccc[n+]2[O-])C3=O)cc1` [US9969687, Compound 199], the Ki is 40 nM.

As for `CC(C)(C)c1ccc(S(=O)(=O)Nc2ccc(Cl)c3c2C(=O)N(Cc2ccncc2)C3=O)cc1` [US9969687, Compound 201], the Ki is above 100 nM.

Consider `CC(C)(C)c1ccc(S(=O)(=O)Nc2ccc(Cl)c3c2C(=O)N(c2cccnc2F)C3=O)cc1` [US9969687, Compound 218], for which the Ki came out at 91 nM.

For the compound `CC(C)(C)c1ccc(S(=O)(=O)Nc2ccc(Cl)c3c2C(=O)N(c2ccccn2)C3=O)cc1` [US9969687, Compound 222], the Ki was determined as 9 nM.

In the case of `Cc1ccc(N2C(=O)c3c(Cl)ccc(NS(=O)(=O)c4ccc(C(C)(C)C)cc4)c3C2=O)c(C)n1` [US9969687, Compound 224], the Ki was above 300 nM.

In the case of `Cc1cccc(N2C(=O)c3c(Cl)ccc(NS(=O)(=O)c4ccc(C(C)(C)C)cc4)c3C2=O)n1` [US9969687, Compound 228], the Ki worked out at 19 nM.

Source of the values: BindingDB's records for doi:10.1021/acs.jmedchem.5b01840 (Norgine, 2016).
